Experimental data taken from patent US12485170B2, “Lipid composition targeting antigen-presenting cells and use thereof” (Beijing Youcare Kechuang Pharmaceutical Technology Co., Ltd., priority 2024, dated 2025).
“Also recorded” adds a separate entry of the source. Read-outs that look alike come from different tables or passages of the source.

Assay: Solubility of anionic lipids in ethanol during preparation
Procedure: General method 1: The components of the lipid composition (including permanently anionic lipids, permanently cationic lipids, and/or neutral lipids, or combinations thereof) were dissolved in ethanol according to the specified molar ratio to prepare an ethanol lipid complex solution (with a total lipid concentration of 100 to 600 mM). The ethanol lipid complex solution was rapidly added to RNase-free water using the ethanol injection method. After stirring for 30 minutes, the resulting lipid composition solution was filtered through a polycarbonate membrane with a pore size of 100 nm to 400 nm.
General method 2: Permanently anionic lipids or compounds were dissolved in RNase-free water to obtain RNase-free water containing permanently anionic lipids. Permanently cationic lipids and neutral lipids were dissolved in ethanol according to the specified molar ratio to prepare an ethanol lipid complex solution (with a total lipid concentration of 100 to 600 mM). The ethanol lipid complex solution was rapidly added to the RNase-free water containing permanently anionic lipids using the ethanol injection method. After stirring for 30 minutes, the resulting lipid composition solution was filtered through a polycarbonate membrane with a pore size of 100 nm to 400 nm.
The molar ratio of permanently anionic lipids, permanently cationic lipid DOTMA, and neutral lipid DOPE in the different complexes was controlled at 1:2:1, and the particle size and PDI were measured.

Notes: solubility of the anionic lipid in ethanol	Notes: solubility of the anionic lipid in ethanol (listed as farnesyl pyrophosphate)	Notes: solubility of the anionic lipid in ethanol (listed as pA (2′-OMe) mpG)	SMILES	Notes: solubility of the anionic lipid in ethanol (phosphate sodium salt)
Insoluble in ethanol,	lower solubility in ethanol		CC(C)=CCC/C(C)=C/CC/C(C)=C/CO[P@@](=O)(O)OP(=O)(O)O (stereo in doubt) [Farnesyl pyrophosphate]	
			CCCCCCCC/C=C\CCCCCCCC(=O)OC[C@H](COP(=O)([O-])OCCNC(C)=O)OC(=O)CCCCCCC/C=C\CCCCCCCC.[Na+] [ADOPE, 2-acetamidoethyl ((R)-2,3-bis(oleoyloxy)propyl) phosphate sodium salt]	good solubility in ethanol; also recorded: Soluble in ethanol,
Soluble in ethanol,			CCCCCCCC/C=C\CCCCCCCC(=O)O [Oleic acid]	
Insoluble in ethanol,		lower solubility in ethanol	COC1C(OP(=O)(O)OC[C@H]2O[C@@H](n3cnc4c(=O)[nH]c(N)nc43)C(O)C2O)[C@@H](COP(=O)(O)O)O[C@H]1n1cnc2c(N)ncnc21 (stereo partly drawn) [pA(2′-OMe)mpG, ((2R,3S,4S,5R)-3-(((((2R,3R,4S,5R)-5-(2-amino-6-oxo-1,6-dihydro-9H-purin-9-yl)-3,4-dihydroxytetrahydrofuran-2-yl)methoxy) (hydroxy)phosphoryl)oxy)-5-(6-amino-9H-purin-9-yl)-4-methoxytetrahydrofuran-2-yl) methyl dihydrogen phosphate]	
